Measured values as given in patent US20210361767A1, “RESCUING CANCER PATIENTS FROM RESISTANCE TO TREATMENT WITH INHIBITORS OF PD-1/PD-L1 INTERACTIONS” (Mayo Foundation for Medical Education and Research, priority 2018, published 2021).

How the values were obtained:
Assay type in all cases: cell-based
A549 cells [1] = assay: sPD-L1 in supernatants of A549 cells treated with exogenous ADAM17; details: exogenous ADAM17 vs PBS control, FIG. 4G
A549 cells [2] = assay: PD-L1 flow cytometry of A549 cells; details: vs DMSO, FIGS. 7C, 7D
Procedure: (§1) FIGS. 7A and 7B are flow cytometry plots and graphs showing that cell PD-L1 expression is restored by treatment with an inhibitor of ADAM10 and/or ADAM17, and is decreased by treatment with exogenous recombinant ADAM10 or ADAM17. Cells were incubated in the presence of the indicated treatments, and PD-L1 flow cytometry was performed.

Karpas-299 cells [3] = assay: PD-L1 flow cytometry of Karpas-299 cells; details: vs DMSO, FIGS. 7A, 7B
Procedure: as §1

[4] = test system: A786-0 (renal cell carcinoma) cells; assay: sPD-L1 ELISA of supernatants of A786-0 cells treated with protease inhibitors; details: A786-0 grown between 1 MM and 10 MM cells per ml; FIG. 4B
Procedure: Tumor cells were treated with PBS (placebo) or with various protease inhibitors, including MMP inhibitors TAPI-2 and TAPI-0, aspartic protease inhibitor Pepstatin, cysteine protease inhibitor E-64, serine protease inhibitor Aprotinin, combinations of these inhibitors, and an array of other MMP inhibitors. Cell supernatants were queried for sPD-L1 by ELISA. FIG. 4A, Karpas-299 (lymphoma) cells were treated with the indicated protease inhibitors. FIG. 4B, A786-0 (renal cell carcinoma) cells were treated with the indicated protease inhibitors. FIG. 4C, Dul45 cells were treated with the indicated protease inhibitors. FIG. 4D, Mel-B7H1 (transgenic melanoma) cells were treated with the indicated protease or metalloprotease inhibitors. FIG. 4E is a graph plotting sPD-L1 production induced by interferon treatment or high cell titer in A786-0 cells. Cells grown at 1 MM/ml in control DMSO produced little sPD-L1. […] FIG. 4F is a graph plotting the amount of sPD-L1 in supernatants of Karpas-299 cells treated with control or with varying concentrations of the ADAM10/17 inhibitor aderbasib.
Several tumor cell lines were treated with PBS (placebo) or with various protease inhibitors, including matrix metalloprotease inhibitors TAPI-2 and TAPI-0, aspartic protease inhibitor Pepstatin, cysteine protease inhibitor E-64, serine protease inhibitor Aprotinin, combinations of these inhibitors, and an array of other matrix metalloprotease inhibitors. Cell supernatants were queried for sPD-L1 by ELISA as published elsewhere (Frigola et la., supra). In brief, paired mouse IgG2 monoclonal antibodies against extracellular rhB7-H1 were utilized in a capture-detection plate assay using biotinylation and HRP-streptavidin detection. […] Concentrations were determined by optical density measurements along a known standard curve of rhB7-H1. […] Two-sided, unpaired Student t tests assessed statistical differences in experimental groups except where otherwise indicated. […]

PD-L1 mRNA = PD-L1 mRNA expression by RT-PCR in Karpas-299 cells; details: Karpas-299, TAPI-2 at 278 μM, 24 hours; data not shown
[5] = test system: Mel-B7H1 (transgenic melanoma) cells; assay: sPD-L1 ELISA of supernatants of Mel-B7H1 cells; details: FIG. 4D
Procedure: Several tumor cell lines were treated with PBS (placebo) or with various protease inhibitors, including matrix metalloprotease inhibitors TAPI-2 and TAPI-0, aspartic protease inhibitor Pepstatin, cysteine protease inhibitor E-64, serine protease inhibitor Aprotinin, combinations of these inhibitors, and an array of other matrix metalloprotease inhibitors. Cell supernatants were queried for sPD-L1 by ELISA as published elsewhere (Frigola et la., supra). In brief, paired mouse IgG2 monoclonal antibodies against extracellular rhB7-H1 were utilized in a capture-detection plate assay using biotinylation and HRP-streptavidin detection. […] Concentrations were determined by optical density measurements along a known standard curve of rhB7-H1. Karpas-299 cells were incubated at 10 MM cells per ml in cell culture media (RPMI plus FBS plus Penicillin/Streptomycin plus buffering reagents) over 24 hours in the presence of 1 μl/100 μl DMSO or PBS (placebo), TAPI-2 at 278 μM, Pepstatin at 206.5 μM, E-64 at 185 μM, or Aprotinin at 220 μM, or a combination of the above materials at various concentrations. […] All statistical analyses were performed using R! software. Two-sided, unpaired Student t tests assessed statistical differences in experimental groups except where otherwise indicated. P values indicate comparison to vehicle control groups. P<0.05 was considered statistically significant. […]

Karpas-299 cells [6] = assay: sPD-L1 ELISA of supernatants of Karpas-299 cells treated with protease inhibitors
Procedure: (§2) Several tumor cell lines were treated with PBS (placebo) or with various protease inhibitors, including matrix metalloprotease inhibitors TAPI-2 and TAPI-0, aspartic protease inhibitor Pepstatin, cysteine protease inhibitor E-64, serine protease inhibitor Aprotinin, combinations of these inhibitors, and an array of other matrix metalloprotease inhibitors. Cell supernatants were queried for sPD-L1 by ELISA as published elsewhere (Frigola et la., supra). In brief, paired mouse IgG2 monoclonal antibodies against extracellular rhB7-H1 were utilized in a capture-detection plate assay using biotinylation and HRP-streptavidin detection. […] Concentrations were determined by optical density measurements along a known standard curve of rhB7-H1. Karpas-299 cells were incubated at 10 MM cells per ml in cell culture media (RPMI plus FBS plus Penicillin/Streptomycin plus buffering reagents) over 24 hours in the presence of 1 μl/100 μl DMSO or PBS (placebo), TAPI-2 at 278 μM, Pepstatin at 206.5 μM, E-64 at 185 μM, or Aprotinin at 220 μM, or a combination of the above materials at various concentrations. […] All statistical analyses were performed using R! software. Two-sided, unpaired Student t tests assessed statistical differences in experimental groups except where otherwise indicated. P values indicate comparison to vehicle control groups. P<0.05 was considered statistically significant.
Subsequent studies were conducted in which Karpas-299 cells were incubated with different matrix metalloprotease inhibitors with varying specificities. For example, Karpas-299 cells were incubated at 10 MM cells per ml in cell culture media over 24 hours in the presence of 1 μl/100 μl DMSO (control), 50 μM TAPI-2, 50 μM TAPI-0, 50 μM GI254023X, 5 μM Ro 32-3555, 5 μM ARP 101, 50 μM UK 370106, 500 pM MMP-9 inhibitor I, 5 μM Doxycycline, or some combination thereof.
Aderbasib is a selective inhibitor of matrix metalloproteases ADAM10 and ADAM17. Karpas-299 cells were incubated at 1 MM-10 MM cells/ml and treated for 24 hours with concentrations of aderbasib ranging from 320 pM to […].
Karpas-299 lymphoma cells producing sB7-H1 were cultured with an array of protease inhibitors. Supernatants from these cultures were isolated and analyzed for sB7H1 concentration by ELISA. Subsequently, activated human CD8+ T cells were cultured with recombinant sB7H1 protein and cell survival was measured at 24 hours. CD8+ T cells also were cultured with sB7H1-rich tumor cell line supernatants versus sB7H1-depleted supernatants over 48 hours in the presence of placebo, low dose (10 nM), or high dose (1 μM) anti-PD-1 antibody pembrolizumab, and cell survival was measured.

[7] = test system: Dul45 prostate cancer cells; assay: sPD-L1 ELISA of supernatants of Dul45 prostate cancer cells; details: FIG. 4C
Procedure: as §2
Further studies were conducted using different types of cells.

**Q.** How did the “detectable sPD-L1 secreted” value (A549 cells [1]) turn out when “ADAM17 (TACE): commercially-obtained, recombinant form of ADAM17 (TACE)” was run?
**A.** higher amounts

**Q.** What about the “PD-L1 expression (flow cytometry)” value (A549 cells [2]) of the same compound?
**A.** decreased

**Q.** With CC(C)C[C@H](CC(=O)NO)C(=O)N[C@H](C(=O)N[C@@H](C)C(=O)NCCN)C(C)(C)C [TAPI-2] as the compound, how does the “PD-L1 expression (flow cytometry)” value (Karpas-299 cells [3]) read?
**A.** restored

**Q.** And the sPD-L1 secretion [4]?
**A.** significantly reduced

**Q.** And the “PD-L1 mRNA expression (RT-PCR)” value (PD-L1 mRNA)?
**A.** without reducing PD-L1 mRNA expression

**Q.** What about the sPD-L1 expression [5] of the same compound?
**A.** most significantly reduced

**Q.** What about the “Karpas-299 production of sB7H1” value (Karpas-299 cells [6]; Example 3, supernatants by ELISA, p<0.0001) of the same compound?
**A.** inhibited

**Q.** And the “secretion of sPD-L1” value (Karpas-299 cells [6]; Karpas-299, 10 MM cells per ml, 24 hours, TAPI-2 at 278 μM, vs DMSO or PBS, FIG. 4A, p=5.6×10^−12)?
**A.** reduced the secretion of sPD-L1

**Q.** And the “sPD-L1 secretion versus controls” value [7]?
**A.** significantly reduced

**Q.** And the “PD-L1 expression (flow cytometry)” value (A549 cells [2])?
**A.** restored
